pKi: −log10 of the molar value. Where “and” joins values, the source holds several entries; their conditions need not be identical. Equal entries are not always repeated. Non-standard residues stand in square brackets, D forms with d. Residues, ends and D or L forms follow the SMILES beside them. ξ: configuration not given here. Ile(3ξ) = CCC(C)[C@H](N)C(=O)O
Biological target: T1, Pituitary adenylate cyclase-activating polypeptide (Rattus norvegicus, UniProt P13589)
T1 sequence (P13589 whole entry): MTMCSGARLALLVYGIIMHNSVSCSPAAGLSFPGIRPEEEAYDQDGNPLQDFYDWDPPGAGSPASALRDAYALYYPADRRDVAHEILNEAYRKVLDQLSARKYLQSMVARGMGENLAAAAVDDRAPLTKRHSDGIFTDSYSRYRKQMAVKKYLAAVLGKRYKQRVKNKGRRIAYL

Row | Structure (SMILES) | pKi
1 | CSCC[C@H](NC(=O)[C@H](CCC(N)=O)NC(=O)[C@H](CCCCN)NC(=O)[C@H](CCCNC(=N)N)NC(=O)[C@H](Cc1ccc(O)cc1)NC(=O)[C@H](CCCNC(=N)N)NC(=O)[C@H](CO)NC(=O)[C@H](Cc1ccc(O)cc1)NC(=O)[C@H](CO)NC(=O)[C@H](CC(=O)O)NC(=O)[C@@H](NC(=O)[C@@H](N)Cc1ccccc1)[C@@H](C)O)C(=O)N[C@@H](C)C(=O)N[C@H](C(=O)N[C@@H](CCCCN)C(=O)N[C@@H](CCCCN)C(=O)N[C@@H](Cc1ccc(O)cc1)C(=O)N[C@@H](CC(C)C)C(=O)N[C@@H](C)C(=O)N[C@@H](C)C(=O)N[C@H](C(=O)N[C@@H](CC(C)C)C(=O)NCC(=O)N[C@@H](CCCCN)C(=O)N[C@@H](CCCNC(=N)N)C(=O)N[C@@H](Cc1ccc(O)cc1)C(=O)N[C@@H](CCCCN)C(=O)N[C@@H](CCC(N)=O)C(=O)N[C@@H](CCCNC(=N)N)C(=O)N[C@H](C(=O)N[C@@H](CCCCN)C(=O)N[C@@H](CC(N)=O)C(=O)N[C@@H](CCCCN)C(N)=O)C(C)C)C(C)C)C(C)C | 8.10 and 8.00
2 | CC[C@H](C)[C@H](NC(=O)[C@H](CO)NC(=O)[C@H](CC(N)=O)NC(=O)[C@H](CC(C)C)NC(=O)[C@H](Cc1ccc(O)cc1)NC(=O)[C@H](CCCCN)NC(=O)[C@H](CCCCN)NC(=O)[C@@H](NC(=O)[C@H](C)NC(=O)[C@H](CCSC)NC(=O)[C@H](CCC(N)=O)NC(=O)[C@H](CCCCN)NC(=O)[C@H](CCCN=C(N)N)NC(=O)[C@H](CC(C)C)NC(=O)[C@H](CCCN=C(N)N)NC(=O)[C@@H](NC(=O)[C@H](Cc1ccc(O)cc1)NC(=O)[C@H](CC(N)=O)NC(=O)[C@H](CC(=O)O)NC(=O)[C@@H](NC(=O)[C@H](Cc1ccccc1)NC(=O)[C@@H](NC(=O)[C@H](C)NC(=O)[C@H](CC(=O)O)NC(=O)[C@H](CO)NC(=O)[C@@H](N)Cc1cnc[nH]1)C(C)C)[C@@H](C)O)[C@@H](C)O)C(C)C)C(=O)N[C@@H](CC(C)C)C(=O)N[C@@H](CC(N)=O)C(=O)O [CAS_37221-79-7] | 7.10
3 | CC[C@H](C)[C@H](NC(=O)CNC(=O)[C@H](CCC(=O)O)NC(=O)[C@H](CO)NC(=O)[C@@H](N)Cc1cnc[nH]1)C(=O)N[C@@H](Cc1ccccc1)C(=O)N[C@H](C(=O)N[C@@H](CC(=O)O)C(=O)N[C@@H](CO)C(=O)N[C@@H](Cc1ccc(O)cc1)C(=O)N[C@@H](CO)C(=O)N[C@@H](CCCNC(=N)N)C(=O)N[C@@H](Cc1ccc(O)cc1)C(=O)N[C@@H](CCCNC(=N)N)C(=O)N[C@@H](CCCCN)C(=O)N[C@@H](CCC(N)=O)C(=O)N[C@@H](CCSC)C(=O)N[C@@H](C)C(=O)N[C@H](C(=O)N[C@@H](CCCCN)C(=O)N[C@@H](CCCCN)C(=O)N[C@@H](Cc1ccc(O)cc1)C(=O)N[C@@H](CC(C)C)C(=O)N[C@@H](C)C(=O)N[C@@H](C)C(=O)N[C@H](C(=O)N[C@@H](CC(C)C)C(N)=O)C(C)C)C(C)C)[C@@H](C)O [PACAP(1-27)] | 10.10
4 | [C][C][C]([C])[C@H]([N]C(=O)[C][N]C(=O)[C@H]([C][C]C([O])=O)[N]C(=O)[C@@H]([N])[C][O])C(=O)[N][C@@H]([C]c1ccccc1)C(=O)[N][C@H](C(=O)[N][C@@H]([C]C([O])=O)C(=O)[N][C@@H]([C][O])C(=O)[N][C@@H]([C]c1ccc([O])cc1)C(=O)[N][C@@H]([C][O])C(=O)[N][C@@H]([C][C][C]N=C([N])[N])C(=O)[N][C@@H]([C]c1ccc([O])cc1)C(=O)[N][C@@H]([C][C][C]N=C([N])[N])C(=O)[N][C@@H]([C][C][C][C][N])C(=O)[N][C@@H]([C][C]C([N])=O)C(=O)[N][C@@H]([C][C]S[C])C(=O)[N][C@@H]([C])C(=O)[N][C@@H]([C]([C])[C])C(=O)[N][C@@H]([C][C][C][C][N])C(=O)[N][C@@H]([C][C][C][C][N])C(=O)[N][C@@H]([C]c1ccc([O])cc1)C(=O)[N][C@@H]([C][C]([C])[C])C(=O)[N][C@@H]([C])C(=O)[N][C@@H]([C])C(=O)[N][C@@H]([C]([C])[C])C(=O)[N][C@@H]([C][C]([C])[C])C([N])=O)[C@@H]([C])[O] [PACAP(2-27)] | 8.30
5 | CCC(C)[C@H](NC(=O)CNC(=O)[C@H](CC(=O)O)NC(=O)[C@@H](N)CO)C(=O)N[C@@H](Cc1ccccc1)C(=O)N[C@H](C(=O)N[C@@H](CC(=O)O)C(=O)N[C@@H](CO)C(=O)N[C@@H](Cc1ccc(O)cc1)C(=O)N[C@@H](CO)C(=O)N[C@@H](CCCN=C(N)N)C(=O)N[C@@H](Cc1ccc(O)cc1)C(=O)N[C@@H](CCCN=C(N)N)C(=O)N[C@@H](CCCCN)C(=O)N[C@@H](CCC(N)=O)C(=O)N[C@@H](CCSC)C(=O)N[C@@H](C)C(=O)N[C@H](C(=O)N[C@@H](CCCCN)C(=O)N[C@@H](CCCCN)C(=O)N[C@@H](Cc1ccc(O)cc1)C(=O)N[C@@H](CC(C)C)C(=O)N[C@@H](C)C(=O)N[C@@H](C)C(=O)N[C@H](C(=O)N[C@@H](CC(C)C)C(=O)NCC(=O)N[C@@H](CCCCN)C(=O)N[C@@H](CCCN=C(N)N)C(=O)N[C@@H](Cc1ccc(O)cc1)C(=O)N[C@@H](CCCCN)C(=O)N[C@@H](CCC(N)=O)C(=O)N[C@@H](CCCN=C(N)N)C(=O)N[C@H](C(=O)N[C@@H](CCCCN)C(=O)N[C@@H](CC(N)=O)C(=O)N[C@@H](CCCCN)C(N)=O)C(C)C)C(C)C)C(C)C)[C@@H](C)O (stereo partly drawn) [PACAP(2-38)] (H-SDG[Ile(3ξ)]FTDSYSRYRKQMAVKKYLAAVLGKRYKQRVKNK-NH2) | 8.30 and 8.10
6 | CCC(C)[C@H](NC(=O)CNC(=O)[C@@H](N)CC(=O)O)C(=O)N[C@@H](Cc1ccccc1)C(=O)N[C@H](C(=O)N[C@@H](CC(=O)O)C(=O)N[C@@H](CO)C(=O)N[C@@H](Cc1ccc(O)cc1)C(=O)N[C@@H](CO)C(=O)N[C@@H](CCCN=C(N)N)C(=O)N[C@@H](Cc1ccc(O)cc1)C(=O)N[C@@H](CCCN=C(N)N)C(=O)N[C@@H](CCCCN)C(=O)N[C@@H](CCC(N)=O)C(=O)N[C@@H](CCSC)C(=O)N[C@@H](C)C(=O)N[C@H](C(=O)N[C@@H](CCCCN)C(=O)N[C@@H](CCCCN)C(=O)N[C@@H](Cc1ccc(O)cc1)C(=O)N[C@@H](CC(C)C)C(=O)N[C@@H](C)C(=O)N[C@@H](C)C(=O)N[C@H](C(=O)N[C@@H](CC(C)C)C(N)=O)C(C)C)C(C)C)[C@@H](C)O (stereo partly drawn) [PACAP(3-27)] (H-DG[Ile(3ξ)]FTDSYSRYRKQMAVKKYLAAVL-NH2) | 6.30 and 6.40
7 | CCC(C)[C@H](NC(=O)CNC(=O)[C@@H](N)CC(=O)O)C(=O)N[C@@H](Cc1ccccc1)C(=O)N[C@H](C(=O)N[C@@H](CC(=O)O)C(=O)N[C@@H](CO)C(=O)N[C@@H](Cc1ccc(O)cc1)C(=O)N[C@@H](CO)C(=O)N[C@@H](CCCN=C(N)N)C(=O)N[C@@H](Cc1ccc(O)cc1)C(=O)N[C@@H](CCCN=C(N)N)C(=O)N[C@@H](CCCCN)C(=O)N[C@@H](CCC(N)=O)C(=O)N[C@@H](CCSC)C(=O)N[C@@H](C)C(=O)N[C@H](C(=O)N[C@@H](CCCCN)C(=O)N[C@@H](CCCCN)C(=O)N[C@@H](Cc1ccc(O)cc1)C(=O)N[C@@H](CC(C)C)C(=O)N[C@@H](C)C(=O)N[C@@H](C)C(=O)N[C@H](C(=O)N[C@@H](CC(C)C)C(=O)NCC(=O)N[C@@H](CCCCN)C(=O)N[C@@H](CCCN=C(N)N)C(=O)N[C@@H](Cc1ccc(O)cc1)C(=O)N[C@@H](CCCCN)C(=O)N[C@@H](CCC(N)=O)C(=O)N[C@@H](CCCN=C(N)N)C(=O)N[C@H](C(=O)N[C@@H](CCCCN)C(=O)N[C@@H](CC(N)=O)C(=O)N[C@@H](CCCCN)C(N)=O)C(C)C)C(C)C)C(C)C)[C@@H](C)O (stereo partly drawn) [PACAP(3-38)] (H-DG[Ile(3ξ)]FTDSYSRYRKQMAVKKYLAAVLGKRYKQRVKNK-NH2) | 6.52
8 | CC[C@H](C)[C@H](NC(=O)CNC(=O)[C@H](CC(=O)O)NC(=O)[C@H](CO)NC(=O)[C@@H](N)Cc1cnc[nH]1)C(=O)N[C@@H](Cc1ccccc1)C(=O)N[C@H](C(=O)N[C@@H](CC(=O)O)C(=O)N[C@@H](CO)C(=O)N[C@@H](Cc1ccc(O)cc1)C(=O)N[C@@H](CO)C(=O)N[C@@H](CCCNC(=N)N)C(=O)N[C@@H](Cc1ccc(O)cc1)C(=O)N[C@@H](CCCNC(=N)N)C(=O)N[C@@H](CCCCN)C(=O)N[C@@H](CCC(N)=O)C(=O)N[C@@H](CCSC)C(=O)N[C@@H](C)C(=O)N[C@H](C(=O)N[C@@H](CCCCN)C(=O)N[C@@H](CCCCN)C(=O)N[C@@H](Cc1ccc(O)cc1)C(=O)N[C@@H](CC(C)C)C(=O)N[C@@H](C)C(=O)N[C@@H](C)C(=O)N[C@H](C(=O)N[C@@H](CC(C)C)C(=O)NCC(=O)N[C@@H](CCCCN)C(=O)N[C@@H](CCCNC(=N)N)C(=O)N[C@@H](Cc1ccc(O)cc1)C(=O)N[C@@H](CCCCN)C(=O)N[C@@H](CCC(N)=O)C(=O)N[C@@H](CCCNC(=N)N)C(=O)N[C@H](C(=O)N[C@@H](CCCCN)C(=O)N[C@@H](CC(N)=O)C(=O)N[C@@H](CCCCN)C(N)=O)C(C)C)C(C)C)C(C)C)[C@@H](C)O [PACAP] | 10.00
